From patent publication US20100234459A1, “MEDICALL USE OF 3-(2,2,2,-TRIMETHYLYHDRAZINIUM) PROPIONATE HDROGEN FUMARATE AND DIHYDROGEN PHOSEPHATE” (JSC GRINDEKS, priority 2007, published 2010) come the findings set out here.

This assay concerns rabbit aorta. Briefly: Anti-atherosclerotic experiment: cholesterol-fed rabbits, aorta stained with Oil red O. Type of assay: in vivo, Chinchilla rabbits. The note with it: 1% cholesterol diet, 15 weeks, in drinking water; dihydrogen phosphate 165 mg/kg, hydrogen fumarate 174 mg/kg; compared with control and Meldonium dihydrate (124 mg/kg) groups. As to the method:
Pharmacological experiment was carried out to examine the anti-atherosclerotic effect of Meldonium dihydrogen phosphate or Meldonium hydrogen fumarate in the aorta.
The experiments with Meldonium salt such as Meldonium dihydrogen phosphate or Meldonium hydrogen fumarate, were performed in 38 Chinchilla rabbits weighing 2.5-3.0 kg. The rabbits were randomly divided into 4 groups: Control (n=11), Meldonium dihydrate group (n=9) and Meldonium dihydrogen phosphate group (n=9) and Meldonium hydrogen fumarate group (n=9).
Experimental atherosclerosis, i.e. serum hyperlipidaemia and the atherosclerotic manifestations in the aorta, was induced by administering 1% cholesterol by weight together with standard diet.
The rabbits were fed with standard diet with 1% cholesterol dissolved in the sunflower seed oil (4% from the total amount of food). The diet was enriched with cholesterol as follows: 10 kg standard food for rabbits was heated to 60° C. and was mixed with 100 g warm cholesterol dissolved in 400 ml sunflower seed oil. The rabbits received 200 g of this food per day.
The experimental groups were given Meldonium dihydrate, Meldonium dihydrogen phosphate and Meldonium hydrogen fumarate, in a dose 124 mg/kg, 165 mg/kg and 174 mg/kg. The preparations were added to drinking water.
After 15 weeks the rabbits were sacrificed. Heart, aorta and liver were collected for examination. […]

`C[N+](C)(C)NCCC(=O)O.O=P([O-])(O)O` [Meldonium dihydrogen phosphate]: the “reduction of the area of atherosclerotic plaque in rabbit aorta” value is listed as more than 2 fold.
Consider `C[N+](C)(C)NCCC(=O)O.O=C([O-])C=CC(=O)O` [Meldonium hydrogen fumarate], for which the “reduction of the area of atherosclerotic plaque in rabbit aorta” value is on record as more than 2 fold.
